A word on the Ki: it is the dissociation constant of the complex between target and ligand, obtained from inhibition or displacement. The half-life is the time needed for the level to fall by half in the phase considered.

For series [1], the target named is T1, Type-1 angiotensin II receptor (Homo sapiens, UniProt P30556).
T1 sequence (P30556 whole entry): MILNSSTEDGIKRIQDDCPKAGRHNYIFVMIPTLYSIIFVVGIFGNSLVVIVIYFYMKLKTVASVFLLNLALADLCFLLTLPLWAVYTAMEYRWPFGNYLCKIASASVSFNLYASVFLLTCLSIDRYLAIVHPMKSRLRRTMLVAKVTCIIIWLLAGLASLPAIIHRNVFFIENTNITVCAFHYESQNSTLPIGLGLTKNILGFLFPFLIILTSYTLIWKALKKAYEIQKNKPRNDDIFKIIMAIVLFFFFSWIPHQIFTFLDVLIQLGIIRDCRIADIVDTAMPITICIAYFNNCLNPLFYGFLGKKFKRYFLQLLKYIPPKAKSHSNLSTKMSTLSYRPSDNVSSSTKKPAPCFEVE
Put plainly: Displacement of [125-I]-[Sar1Ile8]-angiotensin II from human AT1R expressed in HEK293 cell membrane assessed as inhibition constant by radioligand binding assay. It is filed as cell membranes.

The target of series [2] is T2, Type-2 angiotensin II receptor (Homo sapiens, UniProt P50052).
T2 sequence (P50052 whole entry): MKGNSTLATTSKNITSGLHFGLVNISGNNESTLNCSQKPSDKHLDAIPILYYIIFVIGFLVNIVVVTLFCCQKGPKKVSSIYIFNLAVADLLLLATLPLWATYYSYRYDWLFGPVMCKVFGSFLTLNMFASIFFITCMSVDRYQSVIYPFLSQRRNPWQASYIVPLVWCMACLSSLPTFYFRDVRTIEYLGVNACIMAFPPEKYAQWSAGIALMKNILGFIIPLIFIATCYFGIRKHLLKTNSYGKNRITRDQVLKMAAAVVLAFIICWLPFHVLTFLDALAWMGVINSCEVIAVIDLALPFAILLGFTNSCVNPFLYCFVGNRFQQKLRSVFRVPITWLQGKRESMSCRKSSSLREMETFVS
Kind of series: Displacement of [125-I]-[Sar1Ile8]-angiotensin II from human AT2R expressed in HEK293 cell membrane assessed as inhibition constant by radioligand binding assay. The format is cell membranes.

Series [3] is described as follows: Metabolic stability in human liver microsomes assessed as half life at 1 uM preincubated for 5 mins followed by NADPH addition and measured upto 60 mins by HPLC-MS/MS analysis. It is filed as ADME, Microsome. As to conditions: time < 65 min.
A short description of series [4]: Metabolic stability in CD-1 mouse liver microsomes assessed as half life at 1 uM preincubated for 5 mins followed by NADPH addition and measured upto 60 mins by HPLC-MS/MS analysis. It is filed as ADME, Microsome. The conditions noted are these: time < 65 min.
Series [5] can be described thus: Metabolic stability in Sprague-Dawley rat liver microsomes assessed as half life at 1 uM preincubated for 5 mins followed by NADPH addition and measured upto 60 mins by HPLC-MS/MS analysis. It is filed as ADME, Microsome. On the technique in general: Liver microsomes are vesicles of endoplasmic reticulum, rich in cytochrome P450 enzymes.
For series [6], the species on record is Homo sapiens. Put plainly: Selectivity index, ratio of Ki for displacement of [125-I]-[Sar1Ile8]-angiotensin II from human AT2R expressed in HEK293 cell membrane to Ki for displacement of [125-I]-[Sar1Ile8]-angiotensin II from human AT1R expressed in HEK293 cell membrane. It is filed as cell membranes.
Series [7] is described as follows: Displacement of [125-I]-angiotensin II from AT2R in pig myometrial membrane assessed as inhibition constant incubated for 1.5 hrs by gamma counter analysis. It is filed as cell membranes, Sus scrofa, Myometrium.

Regarding `CCCCOC(=O)NS(=O)(=O)c1ccc(CCC)cc1-c1ccc(Cn2c(C3CCC3)nc3ccccc32)cc1`, the Ki in series [1] came out at 400 nM; in series [2], 12 nM.
Turning to `CCCCOC(=O)NS(=O)(=O)c1ccc(CCC)cc1-c1ccc(Cn2c(C(C)(C)C)nc3ccccc32)cc1`, the values for the Ki in series [1] and in series [2] were > 1000 nM and 5.3 nM, respectively. The half-life at 1 µM in series [3] turned out to be 12 min; in series [4], 7 min; in series [5] it was 20 min.
As to `CCCCOC(=O)NS(=O)(=O)c1ccc(CCC)cc1-c1cc(F)c(Cn2c(C(C)(C)C)nc3ccccc32)c(F)c1`, the results for the Ki in series [1] and in series [2] were > 3000 nM and 11 nM, respectively.
For `CCCCOC(=O)NS(=O)(=O)c1ccc(CCC)cc1-c1ccc(Cn2c(CCCC)nc3ccccc32)cc1`, the inhibitory constant (Ki) in series [1] is 180 nM; in series [2], 9.2 nM.
In the same order, the values of `CCCCOC(=O)NS(=O)(=O)c1ccc(CCC)cc1-c1ccc(Cn2c(-c3ccccc3)nc3ccccc32)cc1` are > 1000 nM and 590 nM.
On to `CCCc1ccc(S(=O)(=O)NC(=O)OCCCC(F)(F)F)c(-c2cc(F)c(Cn3c(C(C)(C)C)nc4ccccc43)c(F)c2)c1`, for which the Ki in series [1] is > 3000 nM; in series [2] it was 12 nM. The half-life at 1 µM in series [3] came to 15 min; in series [4] it was 6 min; in series [5], 16 min.
For `CCCCOC(=O)NS(=O)(=O)c1ccc(CCC)cc1-c1ccc(Cn2c(C34CC5CC(CC(C5)C3)C4)nc3ccccc32)cc1`, the Ki in series [1] was > 3000 nM; in series [2] it was 460 nM.
Regarding `CCCCOC(=O)NS(=O)(=O)c1ccc(CCC)cc1-c1ccc(Cn2c(C3CCCC3)nc3ccccc32)cc1`, the Ki in series [1] turned out to be 410 nM; in series [2] it was 35 nM. The Ratio Ki in series [6] was 10.
Turning to `CCCc1ccc(S(=O)(=O)NC(=O)OCCC(F)(F)C(F)(F)F)c(-c2ccc(Cn3c(C(C)(C)C)nc4ccccc43)cc2)c1`, the figures for the Ki in series [1] and in series [2] were > 3000 nM and 6 nM, respectively.
Take `CCCc1ccc(S(=O)(=O)NC(=O)OCCCC(F)(F)F)c(-c2ccc(Cn3c(C(C)(C)C)nc4ccccc43)cc2)c1`: the Ki in series [1] was > 3000 nM; in series [2], 4.5 nM. Further, the half-life at 1 µM in series [3] turned out to be 20 min; in series [4] it was 6 min; in series [5], 21 min.
As for `CCCCOC(=O)NS(=O)(=O)c1ccc(CCC)cc1-c1ccc(Cn2c(Cc3ccccc3)nc3ccccc32)cc1`, the Ki in series [1] is > 3000 nM; in series [2], 15 nM.
With `CCCCOC(=O)NS(=O)(=O)c1ccc(CCC)cc1-c1ccc(Cn2c(C)nc3ccccc32)cc1`, the Ki in series [1] stood at 620 nM; in series [2], 9.4 nM. Besides, the figures for the half-life at 1 µM in series [3], in series [4] and in series [5] were 10 min, 4 min and 6 min, respectively.
In the same order, the values of `CCCCOC(=O)NS(=O)(=O)c1ccc(CCC)cc1-c1ccc(Cn2c(-c3nccs3)nc3ccccc32)cc1` are > 3000 nM, 5.1 nM, 21 min, 5 min and 16 min.
Consider `CCCCOC(=O)NS(=O)(=O)c1ccc(CCC)cc1-c1ccc(Cn2c(C(C)C)nc3ccccc32)cc1`, for which the results for the Ki in series [1] and in series [2] were 390 nM and 4 nM, respectively. Further, in series [6], the Ratio Ki is 100.
Turning to `CCCCOC(=O)NS(=O)(=O)c1ccc(CCC)cc1-c1ccc(Cn2c(C3CCCCC3)nc3ccccc32)cc1`, the Ki is > 3000 nM in series [1] and 130 nM in series [2].
Turning to `CCCCOC(=O)NS(=O)(=O)c1ccc(CCC)cc1-c1ccc(Cn2c(C(F)(F)F)nc3ccccc32)cc1`, the Ki in series [1] was > 1000 nM; in series [2], 13 nM. Also, the half-life at 1 µM in series [3] came to 10 min; in series [4], 4 min; in series [5] it was 7 min.
As for `CCCCOC(=O)NS(=O)(=O)c1ccc(CCC)cc1-c1ccc(Cn2c(C3CC3)nc3ccccc32)cc1`, the Ki was 710 nM in series [1] and 31 nM in series [2].
For `CCCCOC(=O)NS(=O)(=O)c1ccc(CCC)cc1-c1ccc(Cn2c(CC(C)C)nc3ccccc32)cc1` the same measures were > 3000 nM and 19 nM.
For the molecule `CCCCOC(=O)NS(=O)(=O)c1sc(CC(C)C)cc1-c1ccc(Cn2ccnc2)cc1` [BULOXIBUTID], the Ki in series [7] was determined as 0.4 nM.
With `CCCCOC(=O)NS(=O)(=O)c1ccc(CCC)cc1-c1ccc(Cn2cnc3ccccc32)cc1`, the Ki was > 1000 nM in series [1] and 29 nM in series [2]. For the same molecule, the half-life at 1 µM came out at 10 min in series [3], 5 min in series [4] and 5 min in series [5].
Turning to `CCCCOC(=O)NS(=O)(=O)c1ccc(CCC)cc1-c1ccc(Cn2c(CCC)nc3ccccc32)cc1`, the inhibition constant (Ki) in series [1] was found to be 460 nM; in series [2] it was 14 nM.
For `CCCCOC(=O)NS(=O)(=O)c1ccc(CCC)cc1-c1ccc(Cn2c(CC)nc3ccccc32)cc1` the same measures were 710 nM and 11 nM.

These data come from ChEMBL document CHEMBL5143706, “2-Alkyl substituted benzimidazoles as a new class of selective AT2 receptor ligands” (Bioorg Med Chem, 2022).
